From patent publication US7456154B2 (priority 2001, dated 2008)

Assays:
AChE-R mRNA = assay: In situ hybridization of AChE-R mRNA in rat muscle; type: in vivo; conditions: healthy and EAMG rats
Experimental: In situ hybridization: Tissues were fixed in 4% paraformaldehyde and cut into 7 μm paraffin embedded sections. Spinal cord sections were deparaffinized, rehydrated using serial ethanol dilutions and permeabilized with proteinase K (10 μg/ml at room temp.). Slides were exposed to 5′ biotinylated, fully 2′-oxymethylated AChE-R or AChE-S-specific 50-mer cRNA probes complementary to human ACHE pseudo-intron 4 or exon 6, respectively [Grisaru et al. (2001) id ibid.]. Hybridization was performed overnight at 52° C. in hybridization mixture containing 10 μg/ml probe, 50 μg/ml yeast tRNA, 50 μg/ml heparin and 50% formamide in 375 mM Na chloride, 37.5 mM Na citrate, pH 4.5. For monkey sections, the probe was constructed according to the human AChE-R sequence; for rat sections, according to the mouse sequence. Slides were washed to remove non-hybridized probe, blocked with 1% skim milk containing 0.01% Tween-20 and 2 mM levamisole, an alkaline phosphatase inhibitor used to suppress non-specific staining and incubate with streptavidin-alkaline phosphatase (Amersham Pharmacia). Fast Red™ substrate (Roche Diagnostics) was used for detection. DAPI staining (Sigma Chemical Co., St. Louis, Mo., USA) served to visualize nuclei. Microscope images were analyzed with Image Pro Plus 4.0 (Media Cybernetics) software. […]

EAMG rats [1] = assay: Electromyography: CMAP ratio under repetitive 3 Hz nerve stimulation in EAMG rats; type: in vivo, rat; conditions: for Effect on CMAP decline / muscle function in EAMG rats: comparable amounts, Table 1; for CMAP ratio (5th vs. 1st amplitude): average ± SEM; for Effect of oral administration on CMAP decline: oral gavage, 1000 μg/kg pyridostigmine, CMAP 1, 5, 24 h
EAMG rats [2] = assay: Repeated daily treatment of EAMG rats (5 days and 1 month): survival, body weight, status; type: in vivo, rat
Description: As shown in Example 5, unlike anti-cholinesterases, rEN101 afforded long-term maintenance of stable CMAP. This further enabled the inventors to test whether the cholinergic imbalance contributes to the physiological deterioration that is characteristic of EAMG. Rats were first treated with rEN101 once a day for 5 days, CMAPs being determined prior to each treatment. Both the efficacy of rEN101 in retrieving normal CMAP and its capacity to reduce the inter-animal variability in CMAP values reached similar levels to those of pyridostigmine (FIGS. 11A and 11B). However, the onset of response to pyridostigmine was more rapid (Table 1), while that observed with rEN101 was longer-lasting. Daily oral or i.v administration of rEN101 stabilized CMAPs over the entire course of treatment (FIG. 11B). In contrast, the effect of pyridostigmine wore off within several hours, causing pronounced fluctuations in muscle status (Table 1 and FIG. 11). Among the animals treated daily with pyridostigmine, 5 out of 6 died within the 5 day experimental course. In contrast, 6 out of 8 animals treated once-a-day with rEN101 via o.g. survived the full 5 day period. This conspicuous difference might reflect the susceptibility of EAMG rats to repeated anesthesia and CMAP measurements. In order to avoid these additional stresses and evaluate the effect of the antisense treatment on EAMG pathophysiology, the inventors subjected groups of moderately sick animals to 1 month of daily oral treatment with minimal interference. […] One way repeated measures ANOVA yielded P<0.05 for all other measures (AS vs. other treatments at 4 weeks). The effect of rEN101 on clinical symptoms was also corroborated by body weight changes. Rats treated with saline and Mestinon treated groups lost 13.5 and 11 g/animal, respectively, whereas animals treated with rEN101 gained, on average, 13 g during the treatment period. Thus, daily rEN101 administration promoted long-term change in the course of EAMG in rats with moderate to severe symptoms, under the same conditions in which untreated or pyridostigmine-treated animals deteriorated.

[3] = intravenous, EAMG rats, 0 h, 50 μg/Kg
[4] = intravenous, EAMG rats, 1 h, 50 μg/Kg
[5] = intravenous, EAMG rats, 5 h, 50 μg/Kg
[6] = intravenous, EAMG rats, 24 h, 50 μg/Kg
[7] = oral, EAMG rats, 0 h, 50 μg/Kg oligonucleotide, 1000 μg/Kg pyridostigmine
[8] = oral, EAMG rats, 1 h, 50 μg/Kg oligonucleotide, 1000 μg/Kg pyridostigmine
[9] = oral, EAMG rats, 5 h, 50 μg/Kg oligonucleotide, 1000 μg/Kg pyridostigmine
[10] = oral, EAMG rats, 24 h, 50 μg/Kg oligonucleotide, 1000 μg/Kg pyridostigmine

Row | Molecule | AChE-R mRNA labeling in muscle (AChE-R mRNA) | Effect on CMAP decline / muscle function in EAMG rats (EAMG rats [1]) | CMAP ratio (5th vs. 1st amplitude) (EAMG rats [1]; [3]) | CMAP ratio (5th vs. 1st amplitude) (EAMG rats [1]; [4]) | CMAP ratio (5th vs. 1st amplitude) (EAMG rats [1]; [5]) | CMAP ratio (5th vs. 1st amplitude) (EAMG rats [1]; [6]) | Effect of oral administration on CMAP decline (EAMG rats [1]; 50 μg/Kg oligonucleotide) | CMAP ratio (5th vs. 1st amplitude) (EAMG rats [1]; [7]) | CMAP ratio (5th vs. 1st amplitude) (EAMG rats [1]; [8]) | CMAP ratio (5th vs. 1st amplitude) (EAMG rats [1]; [9]) | CMAP ratio (5th vs. 1st amplitude) (EAMG rats [1]; [10]) | CMAP after treatment (EAMG rats [1]; 75 μg/kg i.p., EAMG rats) | Duration of effect on CMAP (EAMG rats [1]; 75 μg/kg i.p., EAMG rats) [h] | Onset of effect on CMAP after injection (EAMG rats [1]; 75 μg/kg i.p., EAMG rats) [min] | CMAP after treatment relative to untreated level (EAMG rats [1]; 75 μg/kg i.p., EAMG rats, untreated 87.6% of first evoked potential) | Animals that died within the 5 day experimental course (EAMG rats [2]; EAMG rats treated daily, with repeated anesthesia and CMAP measurements) | Body weight lost during the treatment period (EAMG rats [2]; EAMG rats, 1 month daily oral treatment) [g/animal] | CMAP ratio 24 h following single oral administration (EAMG rats [1]; single oral dose, rEN101 50 μg/kg, pyridostigmine 1000 μg/kg)
1 | 5′-GGAGAAGGAGGAGGAGAGGG-3′ (chemistry not given here) [r-invEN102, reference compound] | unaffected | did not improve muscle function | 0.89 ± 0.02 | 0.89 ± 0.03 | 0.89 ± 0.02 | 0.90 ± 0.02 | had no significant effect | 0.78 ± 0.06 | 0.86 ± 0.05 | 0.86 ± 0.05 | 0.81 ± 0.08 |  |  |  |  |  |  | 
2 | 5′-GGGAGAGGAGGAGGAAGAGG-3′ [rEN102] |  | induced similar rectification of CMAP decline | 0.85 ± 0.06 | 1.04 ± 0.01 | 0.98 ± 0.03 | 1.00 ± 0.01 | active in reversing CMAP decline | 0.82 ± 0.02 | 0.86 ± 0.04 | 0.96 ± 0.02 | 0.95 ± 0.03 |  |  |  |  |  |  | 
3 | CN(C)C(=O)Oc1cccc([N+](C)(C)C)c1 [neostigmine bromide, reference compound] |  |  |  |  |  |  |  |  |  |  |  | 107.4 % of the first evoked potential | 2 | 15 | over 120 % of this level |  |  | 
4 | CN(C)C(=O)Oc1ccc[n+](C)c1 [pyridostigmine, reference compound] |  |  |  |  |  |  | restored CMAP for up to several hours | 0.90 ± 0.01 | 0.98 ± 0.01 | 0.96 ± 0.02 | 0.87 ± 0.02 |  |  |  |  | 5 out of 6 | 11 | returned to the declining baseline
